Test system: C. elegans nematode strain with inducible amyloid-β accumulation (CL4176)
Assay: Alzheimer's disease paralysis assay, C. elegans strain with inducible amyloid-β accumulation
Assay type: in vivo
Details: strain CL4176, heat shock 25° C., counted approximately every 24 h; combination effect after 71 h, persisted for 95 h
Description: These strains accumulate amyloid-β peptides that form plaques in the nematodes and lead to paralysis of the animals. In certain strains, such as strain CL4176, Aβ accumulation occurs only in response to heat shock. Thus, the Alzheimer's disease pattern is inducible in these strains. The number of paralyzed nematodes after a certain period of time following induction of Aβ accumulation indicates the extent of Alzheimer's disease. Thus, the effect of certain substances to which the nematodes are exposed on the number of paralyzed animals is a measure of the anti-Alzheimer effect of these substances.
Nematodes of strain CL4176 were synchronized at the young larval stage and allowed to grow to the L4 stage on normal growth medium for 72 h at 16° C. Then the nematodes were exposed to the test substance and the temperature was increased to 25° C. This heat shock induced Aβ accumulation, simulating the onset of Alzheimer's disease. Approximately every 24 h, the number of animals that were still mobile and those that were paralyzed as a result of Aβ accumulation was determined.

With C=C(C)[C@@H]1CCC(C)=C[C@H]1c1c(O)cc(CCCCC)cc1O [CBD, cannabidiol] the “number of mobile / paralyzed animals after induction of Aβ accumulation” value was “only little effect”.
